Assay [1] deals with FFA1 (Homo sapiens, UniProt O14842). Nature of the assay: Ca2+ mobilisation (Fura2) in Flp-In T-REx 293 cells expressing Nluc-FFA1, FFA1-Nluc or untagged FFA1. Type of assay: cell-based. Further details: expressed in transfected cells. The protocol:
Nluc-FFA1, FFA1-Nluc or untagged FFA1 Flp-In T-REx 293 cells were plated at 50,000 cells per well in poly-D-lysine coated black clear bottom 96-well plates. Cells were then cultured for 24 h until reaching confluency before culture medium was replaced with medium containing 100 ng/mL of doxycycline to induce receptor expression. Cells were cultured for a further 24 h before the assay. On the day of the assay culture medium was removed and replaced with medium containing 3 μM Fura2-AM Ca^2+ dye. […] Fura2 fluorescent emission at 520 nm following excitation with each of 340 and 380 nm was measured in regular intervals both before and after adding test compounds for a total of 90 s per well. Calcium responses were determined by taking the peak 340/380 ratio after first subtracting the ratios obtained prior to addition of test compound.
(A change in cytosolic calcium serves as a functional read-out for many receptors and channels.)

Assay [2] deals with FFA1-Nluc (Homo sapiens, UniProt O14842). Nature of the assay: NanoBRET binding (saturation, kinetics) at C terminal Nluc tagged FFA1. Further details: expressed in transfected cells. Particulars: FFA1-Nluc, 95% confidence interval in parentheses; for Kd: read-out: Kd, saturation BRET binding; for BMax, saturation BRET binding: specific BRET. The protocol: (§1) Nluc-FFA1 or FFA1-Nluc Flp-In T-REx 293 cells were plated at 50,000 cells per well in poly-D-lysine coated white 96-well plates. Cells were cultured for 24 h in the plate before medium was replaced with medium containing 100 ng/mL of doxycycline to induce receptor expression. After culturing for a further 24 h, medium was removed, cells were washed with HBSS and incubated in HBSS for 30 min. To start the assay, NanoGlo substrate (Promega, N1110) was added to the cells at a 1:800 final dilution and incubated for 10 min at 37 °C. For endpoint assays, including both saturation and competition binding, test ligands were then added, including both fluorescent and unlabelled competing ligands as indicated, and plates incubated for a further 5 min at 37 °C. NanoBRET was then quantified in a CLARIOstar microplate reader (BMG Labtech) by measuring luminescent emission with the monochrometer set for the Nluc donor at 450–60 nm, and acceptor luminescent emission 540–60 nm (NBD), 600–80 nm (Cy3.5) or 690–100 nm (SulfoCy5), depending on which fluorophore was being tested. The acceptor/donor BRET ratio was then taken as a measure of fluorophore binding. For kinetic on then off NanoBRET experiments plates were washed the same way and substrate was added to the same concentration. However, 10 min after substrate was added plates were inserted into the CLARIOstar microplate reader set to 25 °C to take repeated measurements of luminescent emission for both the donor and the acceptor fluorophore being used. After 5 min of background measurements, the indicated concentration of fluorescent ligand was added using the plate reader injector and luminescent emission was monitored for ~10 min before the reader was paused to manually add a high concentration of appropriate competing ligand to initiate dissociation. The plate was returned to the reader and luminescence measurements were continued for a further 30 min to monitor dissociation of the fluorescent ligand. For kinetic experiments using multiple concentrations of fluorescent ligand, cells were placed in the plate reader immediately after the addition of Nano-Glo substrate and luminescent measurements were taken. After 5 min, the reader was paused to add the indicated concentrations of fluorescent ligand, before measurements were continued. To set non-specific binding for kinetic experiments, the indicated competing ligand was added 5 min before the addition of the fluorescent ligand.
Sequence of FFA1-Nluc (O14842 whole entry): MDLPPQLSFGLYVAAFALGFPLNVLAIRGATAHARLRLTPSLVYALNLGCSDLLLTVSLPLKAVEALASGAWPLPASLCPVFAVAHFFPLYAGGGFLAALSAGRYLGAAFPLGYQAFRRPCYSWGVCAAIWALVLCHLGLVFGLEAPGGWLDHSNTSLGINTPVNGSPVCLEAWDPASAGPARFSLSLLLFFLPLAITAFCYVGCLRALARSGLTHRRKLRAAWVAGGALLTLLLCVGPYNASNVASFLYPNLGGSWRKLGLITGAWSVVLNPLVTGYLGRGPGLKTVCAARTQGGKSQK
On the technique in general: BRET reads energy transfer from a luciferase to a nearby fluorophore.

Assay [3] concerns the target T1, Nluc-FFA1 (Homo sapiens, UniProt O14842).
T1 construct: expressed in transfected cells
Nature of the assay: NanoBRET binding (saturation, competition, kinetics) at N terminal Nluc tagged FFA1. The following applies: Nluc-FFA1; for Kd: read-out: Kd, saturation BRET binding. The protocol: as §1

Assay [4] has as its target T1, Nluc-FFA1. Nature of the assay: DISCo-BRET with TUG-2591 and TUG-2597 at N terminal Nluc tagged FFA1. It counts as binding. Particulars: Figure 3F, 10 nM, technical duplicate. On the procedure:
Nluc-FFA1 or FFA1-Nluc Flp-In T-REx 293 cells were plated at 50,000 cells per well in poly-D-lysine coated white 96-well plates. Cells were cultured for 24 h in the plate before medium was replaced with medium containing 100 ng/mL of doxycycline to induce receptor expression. After culturing for a further 24 h, culture medium was removed, cells washed with HBSS and incubated in HBSS for 30 min. For all DISCo-BRET formats Nano-Glo substrate was then added at a 1:800 final dilution and cells incubated for 10 min. Following substrate addition experimental set up different among the three formats: endpoint, spectra scan, and kinetics.
For endpoint experiments all fluorescent and unlabelled ligands were added to the cells and incubated for 5 min at 37 °C. Luminescent emission was then measured using a CLARIOstar microplate reader with monochromator set at 450–60 nm (Nluc), 540−60 nm (NBD) and 690–100 nm (SulfoCy5). BRET ratios were then calculated as either SulfoCy5 emission divided by NBD emission, SulfoCy5 emission divided by Nluc emission, or NBD emission divided by Nluc emission.
For spectra scan experiments all indicated fluorescent and unlabelled ligands were added to the cells and cells incubated for 5 min at 37 °C. Luminescence emissions were then measured from each well of the plate from 440 nm – 740 nm with a 5 nm resolution using a CLARIOstar microplate. […]

[5] abbreviates: log[Ligand] -5.5, single technical replicates.
[6] abbreviates: log[Ligand] -6, single technical replicates.
The mark [7] stands for this setting: log[Ligand] -6.5, single technical replicates.
The mark [8] stands for this setting: log[Ligand] -7, single technical replicates.
[9] abbreviates: log[Ligand] -8, single technical replicates.
Setting [10] is: 95% confidence interval in parentheses.

Values joined by “and” are separate entries in the source; they are usually repeats but may differ in a detail not shown here. Equal values may be shown once.

From PMC12254266, “Multicolored sequential resonance energy transfer for detection of simultaneous ligand binding at G protein-coupled receptors” (Nature Communications, 2025) come the findings set out here.

T1 sequence (O14842 whole entry): as above
Sequence of FFA1 (O14842 whole entry): as above

In the case of `Cc1cc(OCCOCCNC(=O)CCCCC[N+]2=C(/C=C/C=C3/N(C)c4ccc5ccccc5c4C3(C)C)C(C)(C)c3c2ccc2ccccc32)ccc1-c1cccc(COc2ccc(CCC(=O)O)c(F)c2)c1.O=C([O-])C(F)(F)F` [TUG-2287], the “activity in Ca2+ assays” value in assay [1] (in words) is listed as “no measurable activity”. Besides, the “Ca2+ Response as a % of T360 Response” value is 17.83% and 27.69% and 20.05% and -0.41% and 1.34% and 0.65% in assay [1] (setting [5]); 5.00% and 8.24% and 2.11% and -0.20% and 0.45% and 0.71% in assay [1] (setting [6]); 1.48% and 8.34% and 1.53% and -0.18% and -0.52% and -0.47% in assay [1] (setting [7]); 0.96% and 2.49% and 1.27% and 0.43% and 0.51% and 0.58% in assay [1] (setting [8]); 2.24% and 3.57% and 0.05% and 1.00% and 0.97% and 1.13% in assay [1] (setting [9]); 1.37% and 5.16% and 0.91% and -0.52% and -0.36% and 0.88% in assay [1] (log[Ligand] -9, single technical replicates). Moreover, the Kd in assay [2] was 25 nM; in assay [3] (setting [10]) it was 200 nM. Besides, in assay [2], the “BMax, saturation BRET binding” value is 0.007 (0.005−0.01).

For `Cc1cc(OCCCNC(=O)CCCN2\C(=C/C=C/C=C/C3=[N+](C)c4ccc(S(=O)(=O)[O-])cc4C3(C)C)C(C)(C)c3ccccc32)ccc1-c1cccc(COc2ccc(CCC(=O)O)c(F)c2)c1` [TUG-TUG-2591], the “Area under the curve from luminecent emission, Total” value in assay [4] is 0.1968 and 0.1494 and 0.1776 and 0.1635 and 0.1742 and 0.2754.

As for `Cc1cc(OCCOCCNC(=O)CCCCCN2\C(=C/C=C/C=C/C3=[N+](C)c4ccc(S(=O)(=O)[O-])cc4C3(C)C)C(C)(C)c3ccccc32)ccc1-c1cccc(COc2ccc(CCC(=O)O)c(F)c2)c1` [TUG-2355], the pEC50 (as a rule, the EC50 on a negative log10 scale, so that one unit is a factor of ten) in assay [1] (Ca2+ data, mean±SEM, NR = No response) came to 5.43±0.06. The “Ca2+ Response as a % of T360 Response” value in assay [1] (FFA1-Nluc cells, log[ligand] -7, technical replicates) was -1.03% and 4.29% and 0.96%; in assay [1] (FFA1-Nluc cells, log[ligand] -7.5, technical replicates), 1.35% and 1.54% and 1.46% and 0.43% and 0.51% and 0.58%; in assay [1] (FFA1-Nluc, log[TUG-2355] -5, technical triplicates) it was 62.07 % of T360 Response and 53.90 % of T360 Response and 49.62 % of T360 Response and 44.94 % of T360 Response and 53.23 % of T360 Response and 56.24 % of T360 Response and 74.69 % of T360 Response and 72.06 % of T360 Response; in assay [1] (Nluc-FFA1, log[TUG-2355] -5, technical triplicates) it was 78.72 % of T360 Response and 80.47 % of T360 Response and 78.90 % of T360 Response and 53.23 % of T360 Response and 56.24 % of T360 Response and 77.92 % of T360 Response and 57.96 % of T360 Response and 82.25 % of T360 Response; in assay [1] (Nluc-FFA1 cells, log[ligand] -7, technical replicates), 1.27% and 0.43% and 0.51% and 0.58% and 0.96% and 2.49%; in assay [1] (Nluc-FFA1 cells, log[ligand] -7.5, technical replicates), 2.49% (2×) and 2.03%. Moreover, the “Ca2+ Response as a % of T360 Response” value in assay [1] (Nluc-FFA1 cells, log[ligand] -8, technical replicates) was 0.05% and 1.00% and 0.97% and 1.13%; in assay [1] (log[Ligand] -4.5, single technical replicates), 81.14% and 82.71% and 91.68% and 50.63% and 60.58% and 55.59% and 78.02% and 80.44% and 71.73%; in assay [1] (log[Ligand] -5, single technical replicates), 78.72% and 80.47% and 78.90% and 53.23% and 56.24% and 77.92% and 57.96% and 82.25%; in assay [1] (setting [5]), 47.56% and 39.50% and 44.99% and 26.68% and 35.66% and 31.10% and 60.09% and 62.76% and 60.18%; in assay [1] (setting [6]), 6.20% and 5.86% and 4.09% and -1.05% and -0.0134% and -0.48% and -1.46% and 7.50% and -1.37%; in assay [1] (setting [7]), 0.81% and -1.43% and -1.40% and -2.16% and -1.38% and 1.40% and -3.04% and 3.51% and -1.19%. Also, the “Ca2+ Response as a % of T360 Response” value is 1.12% and 1.72% and 2.65% and -2.38% and -2.12% and 0.39% and -2.69% and 2.22% and 0.50% in assay [1] (setting [8]); -2.32% and 0.08% and 1.34% and 0.25% and -0.22% and -1.88% and -1.89% and 3.89% and -2.52% in assay [1] (setting [9]). Moreover, the EMax in assay [1] (percentage of response to 10 μM T360, NR = No response) is on record as 87±10%. Besides, the values for the Kd in assay [2] and in assay [3] (setting [10]) were 240 nM and 520 nM, respectively. For the same molecule, the “BMax, saturation BRET binding” value in assay [2] was 0.022 (0.015−0.038); in assay [3] (specific BRET, 95% confidence interval in parentheses), 0.083 (0.060−0.14). In addition, the “Specific BRET” value in assay [3] ([TUG-2355] 1000 nM, technical triplicates) was 0.0476 and 0.0570 and 0.0671 and 0.0472 and 0.0443 and 0.0544.
